Experimental data taken from US7169789B2 (Kirin Beer Kabushiki Kaisha, priority 1999, dated 2007).
pIC50: −log10 of the molar value.

Legend:
Human glioma cells GL07 = assay: Antitumor effect on human glioma cells (GL07) transplanted into nude mice; assay type: in vivo; settings: GL07, oral, 20 mg/kg once a day for 9 days; for inhibition in vivo at 20 mg/kg: Mus musculus, Glioma cell, 216 h, read-out: TGIR, % (tumor growth inhibition rate)
Protocol: Antitumor Effect on Human Glioma Cells (GL07)
Human glioma cells GL07 (obtained from Central Laboratories for Experimental Animals) were transplanted into nude mice. When the tumor volume became about 100 mm^3, the mice were grouped. In this case, grouping was carried out so that each group consisted of four mice and the average tumor volume was even among the groups. The test compound was orally or intraperitoneally administered at a dose of 20 mg/kg to the test groups every day once a day for 9 days, while the medium was administered to the control group in the manner as in the test groups. The tumor growth inhibition rate (TGIR) was calculated as follows: The tumor growth inhibition rate (TGIR)=(1−Tx/Cx)×100 wherein Cx represents the volume of tumor at day x for the control group when the tumor volume at the day of the start of the administration was presumed to be 1; and Tx represents the volume of tumor for test compound administration groups.

human KDR = target: T1, human KDR (Homo sapiens, UniProt P35968); assay: Inhibitory activity against KDR phosphorylation by ELISA; assay type: cell-based; settings: NIH 3T3 cells transfected with human KDR, VEGF 100 ng/ml
T1 construct: expressed in transfected cells; host or cells: NIH 3T3 cells (Sawano A et al., Cell Growth & Differentiation 7, 213-221 (1996))
Protocol: Measurement of Inhibitory Activity Against KDR Phosphorylation by ELISA
NIH 3T3 cells (Sawano A et al., Cell Growth & Differentation, 7, 213–221 (1996), “Flt-1 but not KDR/Flk-1 tyrosine kinase is a receptor for placenta growth factor, which is related to vascular endothelial growth factor”) prepared by transfection of human KDR were cultured in a DMEM medium containing 10% fetal calf serum (purchased from GIBCO BRL) within a 5% carbon dioxide incubator until 50 to 70% confluent. The harvested cells were inoculated into wells, containing the same medium, in a collagen-type one-coat 96-well flat-bottom plate in an amount of 1.5×10^4 per well, followed by cultivation at 37° C. overnight. The medium was then replaced by a DMEM medium containing 0.1% fetal calf serum. A solution of the test compound in dimethyl sulfoxide was added to each well, and the cultivation was continued at 37° C. for additional one hr. A human recombinant vascular endothelial growth factor (hereinafter abbreviated to “VEGF”) was added to a final concentration of 100 ng/ml, and the stimulation of cells was carried out at 37° C. for 2 min. The medium was removed, the cells were washed with phosphate buffered saline (pH 7.4), and 50 μl of a solubilization buffer (20 mM HEPES (pH 7.4), 150 mM NaCl, 0.2% Triton X-100, 10% glycerol, 5 mM sodium orthovanadylate, 5 mM disodium ethylenediaminetetraacetate, and 2 mM Na4P2O7) was then added thereto. The mixture was shaken at 4° C. for 2 hr to prepare a cell extract.
Separately, phosphate buffered saline (50 μl, pH 7.4) containing […] of anti-phospho-tyrosine antibody (PY20; purchased from Transduction Laboratories) was added to a microplate for ELISA (Maxisorp; purchased from NUNC), followed by standing at 4° C. overnight to form a solid phase on the wells. After washing of the plate, 300 μl of a blocking solution was added, followed by standing at room temperature for 2 hr to perform blocking. After washing, the whole quantity of the cell extract was transferred to the wells, and the plate was then allowed to stand at 4° C. overnight. After washing, an anti-KDR antibody (purchased from Santa Cruz) was allowed to react at room temperature for one hr, and, after washing, a peroxidase-labeled anti-rabbit Ig antibody (purchased from Amersham) was allowed to react at room temperature for one hr. After washing, a chromophoric substrate for peroxidase (purchased from Sumitomo Bakelite Co., Ltd.) was added thereto to initiate a reaction. After a suitable level of color development, a reaction termination solution was added to stop the reaction, and the absorbance at 450 nm was measured with a microplate reader. The KDR phosphorylation activity for each well was determined by presuming the absorbance with the addition of VEGF and without the addition of the medicament to be 100% KDR phosphorylation activity and the absorbance without the medicament and VEGF to be 0% KDR phosphorylation activity. The concentration of the test compound was varied on several levels, the inhibition (%) of KDR phosphorylation was determined for each case, and the concentration of the test compound necessary for inhibiting 50% of KDR phosphorylation (IC50) was calculated.

T1 sequence (P35968 20-1356): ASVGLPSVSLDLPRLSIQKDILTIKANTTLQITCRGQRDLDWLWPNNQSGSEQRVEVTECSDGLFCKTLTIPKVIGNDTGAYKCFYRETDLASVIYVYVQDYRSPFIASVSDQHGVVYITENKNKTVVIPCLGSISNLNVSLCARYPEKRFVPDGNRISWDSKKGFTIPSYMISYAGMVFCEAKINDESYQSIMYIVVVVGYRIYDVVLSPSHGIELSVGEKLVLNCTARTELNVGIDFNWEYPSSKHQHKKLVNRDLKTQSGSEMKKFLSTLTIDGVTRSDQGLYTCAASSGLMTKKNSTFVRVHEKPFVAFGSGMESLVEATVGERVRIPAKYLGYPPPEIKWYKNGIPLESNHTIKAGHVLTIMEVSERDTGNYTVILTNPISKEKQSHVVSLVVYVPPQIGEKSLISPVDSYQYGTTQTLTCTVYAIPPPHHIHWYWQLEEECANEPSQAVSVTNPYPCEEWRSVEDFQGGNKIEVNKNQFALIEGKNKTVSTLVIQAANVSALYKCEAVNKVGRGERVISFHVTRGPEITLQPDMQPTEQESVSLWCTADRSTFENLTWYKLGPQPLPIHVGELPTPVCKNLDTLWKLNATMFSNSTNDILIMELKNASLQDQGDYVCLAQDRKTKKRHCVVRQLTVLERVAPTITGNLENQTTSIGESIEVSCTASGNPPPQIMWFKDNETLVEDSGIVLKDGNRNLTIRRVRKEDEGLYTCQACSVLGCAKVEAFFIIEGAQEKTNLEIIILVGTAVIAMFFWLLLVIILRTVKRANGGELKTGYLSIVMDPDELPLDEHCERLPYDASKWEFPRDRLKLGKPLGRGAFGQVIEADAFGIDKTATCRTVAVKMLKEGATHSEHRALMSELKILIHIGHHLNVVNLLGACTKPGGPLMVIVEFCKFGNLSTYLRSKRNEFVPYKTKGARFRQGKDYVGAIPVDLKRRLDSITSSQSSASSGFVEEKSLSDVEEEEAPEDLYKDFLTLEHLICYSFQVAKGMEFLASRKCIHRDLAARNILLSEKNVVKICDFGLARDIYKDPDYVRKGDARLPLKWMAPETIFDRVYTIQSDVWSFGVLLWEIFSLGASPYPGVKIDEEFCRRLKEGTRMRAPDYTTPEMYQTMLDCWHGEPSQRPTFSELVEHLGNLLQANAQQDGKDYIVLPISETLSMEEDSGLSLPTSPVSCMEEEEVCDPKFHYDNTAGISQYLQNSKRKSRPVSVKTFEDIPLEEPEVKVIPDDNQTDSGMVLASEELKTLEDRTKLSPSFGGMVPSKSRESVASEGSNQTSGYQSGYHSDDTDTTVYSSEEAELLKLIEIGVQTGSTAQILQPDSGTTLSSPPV

SMILES	inhibition in vivo at 20 mg/kg (Human glioma cells GL07) [%]	pIC50 (human KDR)	TGIR, % (tumor growth inhibition rate) (Human glioma cells GL07) [%]
COc1cc2c(Oc3ccc(NC(=O)Nc4ccc(F)cc4F)c(Cl)c3)ccnc2cc1OCCN1CCOCC1 [Example 51, N-(2-chloro-4-{[6-methoxy-7-(2-morpholinoethoxy)-4-quinolyl]oxy}phenyl)-N′-(2,4-difluorophenyl)urea]	65		
C#CCNC(=O)Nc1ccc(Oc2ncnc3cc(OC)c(OC)cc23)cc1Cl [Example 81, N-{2-Chloro-4-[(6,7-dimethoxy-4-quinazolinyl)oxy]phenyl}-N′-(2-propynyl)urea]		8.39	
CCCNC(=O)Nc1ccc(Oc2ncnc3cc(OC)c(OC)cc23)cc1F [Example 88, N-{4-[(6,7-Dimethoxy-4-quinazolinyl)oxy]-2-fluorophenyl}-N′-propylurea]		7.21	
COc1ccccc1NC(=O)Nc1ccc(Oc2ncnc3cc(OC)c(OC)cc23)c(C)c1 [Example 101, N-{4-[(6,7-Dimethoxy-4-quinazolinyl)oxy]-3-methylphenyl}-N′-(2-methoxyphenyl)urea]	44	8.52	
CCCCNC(=O)Nc1ccc(Oc2ncnc3cc(OC)c(OC)cc23)cc1[N+](=O)[O-] [Example 108, N-Butyl-N′-{4-[(6,7-dimethoxy-4-quinazolinyl)oxy]-2-nitrophenyl}urea]		8.30	
CCCNC(=O)N(COC)c1ccc(Oc2ncnc3cc(OC)c(OC)cc23)cc1Cl [Example 109, N-{2-Chloro-4-[(6,7-dimethoxy-4-quinazolinyl)oxy]phenyl}-N-methoxymethyl-N′-propylurea]	71		
CCCNC(=O)N(C(C)=O)c1ccc(Oc2ncnc3cc(OC)c(OC)cc23)cc1Cl [Example 110, N-Acetyl-N-{2-chloro-4-[(6,7-dimethoxy-4-quinazolinyl)oxy]phenyl}-N′-propylurea]	26	< 6.00	
CCCN(C)C(=O)Nc1ccc(Oc2ncnc3cc(OC)c(OC)cc23)cc1Cl [Example 111, N′-{2-Chloro-4-[(6,7-dimethoxy-4-quinazolinyl)oxy]phenyl}-N-methyl-N-propyurea]	78	< 6.00	
CCCN(CC)C(=O)Nc1ccc(Oc2ncnc3cc(OC)c(OC)cc23)cc1Cl [Example 112, N′-{2-Chloro-4-[(6,7-dimethoxy-4-quinazolinyl)oxy]phenyl}-N-ethyl-N-propylurea]	81	< 6.00	
CCCN(CCC)C(=O)Nc1ccc(Oc2ncnc3cc(OC)c(OC)cc23)cc1Cl [Example 113, N′-{2-Chloro-4-[(6,7-dimethoxy-4-quinazolinyl)oxy]phenyl}-N,N-dipropylurea]	61	< 6.00	
CCCCN(C)C(=O)Nc1ccc(Oc2ncnc3cc(OC)c(OC)cc23)cc1Cl [Example 114, N-Butyl-N′-{2-chloro-4-[(6,7-dimethoxy-4-quinazolinyl)oxy]phenyl}-N-methylurea]	60	< 6.00	
COc1cc2ncnc(Oc3ccc(NC(=O)N(C)c4ccc(Cl)cc4)c(Cl)c3)c2cc1OC [Example 115, N′-{2-Chloro-4-[(6,7-dimethoxy-4-quinazolinyl)oxy]phenyl}-N-(4-chlorophenyl)-N-methylurea]	74	< 6.00	
CCN(CC)C(=O)Nc1ccc(Oc2ncnc3cc(OC)c(OC)cc23)cc1Cl [Example 116, N′-{2-Chloro-4-[(6,7-dimethoxy-4-quinazolinyl)oxy]phenyl}-N,N-diethylurea]	83	< 6.00	
CNC(=O)Nc1ccc(Oc2ncnc3cc(OC)c(OC)cc23)cc1Cl [Example 117, N-{2-chloro-4-[(6,7-dimethoxy-4-quinazolinyl)oxy]phenyl}-N′-methylurea]		7.62	
COc1cc2ncnc(Oc3ccc(NC(=O)N(C)C)c(Cl)c3)c2cc1OC [Example 118, N′-{2-Chloro-4-[(6,7-dimethoxy-4-quinazolinyl)oxy]phenyl}-N,N-dimethylurea]		< 6.00	
CCCNC(=O)Nc1ccc(Oc2ncnc3cc(OCCCN4CCOCC4)c(OC)cc23)cc1Cl [Example 119, N-(2-chloro-4-{[6-methoxy-7-(3-morpholinopropoxy)-4-quinazolinyl]oxy}phenyl)-N′-propylurea]	40	8.44	
CCCNC(=O)Nc1ccc(Oc2ncnc3cc(OCCN4CCOCC4)c(OC)cc23)cc1Cl [Example 120, N-(2-Chloro-4-{[6-methoxy-7-(2-morpholinoethoxy)-4-quinazolinyl]oxy}phenyl)-N′-propylurea]	30	8.41	
CCCNC(=O)Nc1ccc(Oc2ncnc3cc(OCCCO)c(OC)cc23)cc1Cl [Example 121, N-(2-Chloro-4-{(7-(3-hydroxypropoxy)-6-methoxy-4-quinazolinyl]oxy}phenyl)-N′-propylurea]	22	7.90	
CCCNC(=O)Nc1ccc(Oc2ncnc3cc(OCCO)c(OC)cc23)cc1Cl [Example 122, N-(2-Chloro-4-{[7-(2-hydroxyethoxy)-6-methoxy-4-quinazolinyl]oxy}phenyl)-N′-propylurea]	21	8.24	
CCCNC(=O)Nc1ccc(Oc2ncnc3cc(OCCN4CCN(C)CC4)c(OC)cc23)cc1Cl [Example 128, N-[2-Chloro-4-({6-methoxy-7-[2-(4-methylpiperazino)ethoxy]-4-quinazolinyl}oxy)phenyl]-N′-propylurea]	21		
CCCNC(=O)Nc1ccc(Oc2ncnc3cc(OCCN(C)CCO)c(OC)cc23)cc1Cl [Example 129, N-{2-Chloro-4-[(7-{2-[(2-hydroxyethyl)-(methyl)amino]ethoxy}-6-methoxy-4-quinazolinyl)oxy]-phenyl}-N′-propylurea]	25		
CCCNC(=O)Nc1ccc(Oc2ncnc3cc(OCCCN4CCN(C)CC4)c(OC)cc23)cc1Cl [Example 130, N-[2-Chloro-4-({6-methoxy-7-[3-(4-methylpiperazino)propoxy]-4-quinazolinyl}oxy)phenyl]-N′-propylurea]	32		
CCCNC(=O)Nc1ccc(Oc2ncnc3cc(OCCCN4CCOCC4)c(OC)cc23)cc1OC [Example 171, N-(2-Methoxy-4-{[6-methoxy-7-(3-morpholinopropoxy)-4-quinazolinyl]oxy}phenyl)-N′-propylurea]	13		
COc1cc(Oc2ncnc3cc(OCCCN4CCOCC4)c(OC)cc23)ccc1NC(=O)Nc1ccc(F)cc1F [Example 172, N-(2,4-Difluorophenyl)-N′-(2-methoxy-4-{[6-methoxy-7-(3-morpholinopropoxy)-4-quinazolinyl]oxy}-phenyl)urea]	42		
CCCNC(=O)Nc1ccc(Oc2ccnc3cc(OCCCN4CCOCC4)c(OC)cc23)cc1OC [Example 173, N-(2-Methoxy-4-{[6-methoxy-7-(3-morpholinopropoxy)-4-quinolyl]oxy}phenyl)-N′-propylurea]	21		
CCCNC(=O)Nc1ccc(Oc2ccnc3cc(OCc4ccncc4)c(OC)cc23)cc1OC [Example 174, N-(2-Methoxy-4-{[6-methoxy-7-(4-pyridylmethoxy)-4-guinolyl]oxy}phenyl)-N′-propylurea]			19
